Source: patent US20230203060A1 (GENFLEET THERAPEUTICS (SHANGHAI) INC., priority 2020, published 2023)

Columns and labels:
[1] = tested on: A549 cells (KRAS G12S mutant); experiment: Cell proliferation inhibition experiment, 3D spheroid, CellTiter-Glo, A549; type: cell-based, human; details: Homo sapiens, A549, 120 h, A549 (KRAS G12S mutant) 3D spheroid, 5 days with compound, CellTiter-Glo; read-out: A549 IC50
Summary of the method: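 Cells seeded in 2% FBS medium in spheroid plates (800 H358 or 400 A549 per well), grown overnight to form 3D spheroids, then exposed to 3.16-fold compound dilutions (0.1% DMSO) for 5 days. CellTiter-Glo luminescence gave inhibition vs DMSO and medium blanks; IC50 by four-parameter fit.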

[2] = tested on: KRAS G12C mutant MIA PaCa-2 cells; experiment: Cell proliferation inhibition experiment, 3D spheroid, CellTiter-Glo, MIA PaCa-2; type: cell-based, human; details: Homo sapiens, MIA PaCa-2, 120 h, 3D cell model in 384-well spheroid plate, 5 days, CellTiter-Glo; read-out: MIA-PaCa2 IC50
Summary of the method: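 200 MIA PaCa-2 cells/well grown overnight as 3D spheroids, then exposed to 3.16-fold compound dilutions (0.1% DMSO final) for 5 days. Viability read by CellTiter-Glo luminescence; inhibition calculated against DMSO and medium-only controls, and IC50 fitted by four-parameter model.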

Row | SMILES | IC50 [1] | IC50 [2]
1 | C=CC(=O)N1CCN2C(=O)c3c(N4C[C@@H](N5CC(F)C5)CC4(C)C)nc(-c4ccccc4F)c(Cl)c3OC[C@H]2C1 [Z480-1, (R)-8-acryloyl-4-chloro-1-((S)-4-(3-fluoroazetidin-1-yl)-2,2-dimethylpyrrolidin-1-yl)-3-(2-fluorophenyl)-6,6a,7,8,9,10-hexahydro-12H-pyrazino[2,1-c]pyrido[3,4-f][1,4]oxazepin-12-one] | 3980 nM | 10 nM
2 | C=CC(=O)N1CCN2C(=O)c3c(N4CC[C@H](N(C)C)C4(C)C)nc(-c4ccccc4F)c(Cl)c3OC[C@H]2C1 [Z502-2, (6aR)-8-acryloyl-4-chloro-1-(3-(dimethylamino)-2,2-dimethylpyrrolidin-1-yl)-3-(2-fluorophenyl)-6,6a,7,8,9,10-hexahydro-12H-pyrazino[2,1-c]pyrido[3,4-f][1,4]oxazepin-12(6aH)-one] | 6140 nM | 24.1 nM
3 | C=CC(=O)N1CCN2C(=O)c3c(N4C[C@H](N5CC(F)C5)CC4(C)C)nc(-c4ccccc4F)c(F)c3OC[C@H]2C1 [Z654-2, (R)-8-acryloyl-4-fluoro-1-((R)-4-(3-fluoroazetidin-1-yl)-2,2-dimethylpyrrolidin-1-yl)-3-(2-fluorophenyl)-6,6a,7,8,9,10-hexahydro-12H-pyrazino[2,1-c]pyrido[3,4-f][1,4]oxazepin-12-one] | 8580 nM | 50.2 nM

The next lines start with the values.

Row | IC50 [1] | IC50 [2] | SMILES
4 | 9190 nM | 2.2 nM | C=CC(=O)N1CCN2C(=O)c3c(N4CCC(OC)C4(C)C)nc(-c4c(N)cccc4F)c(Cl)c3OC[C@H]2C1 (stereo partly drawn) [Z506, (6aR)-8-acryloyl-3-(2-amino-6-fluorophenyl)-4-chloro-1-(3-methoxy-2,2-dimethylpyrrolidin-1-yl)-6,6a,7,8,9,10-hexahydro-12H-pyrazino[2,1-c]pyrido[3,4-f][1,4]oxazepin-12-one]
5 | 3170 nM | 24.5 nM | C=CC(=O)N1CCN2C(=O)c3c(N4CC(N5CCC(F)(F)C5)CC4(C)C)nc(-c4ccccc4F)c(Cl)c3OC[C@H]2C1 (stereo partly drawn) [Z532, (6aR)-8-acryloyl-4-chloro-1-(3,3-difluoro-5′,5′-dimethyl-[1,3′-bipyrrolidin]-1′-yl)-3-(2-fluorophenyl)-6,6a,7,8,9,10-hexahydro-12H-pyrazino[2,1-c]pyrido[3,4-f][1,4]oxazepin-12-one]
6 | 8160 nM | 43 nM | C=CC(=O)N1CCN2C(=O)c3c(N4CCN(C)C[C@@H]4C)nc(-c4c(F)cccc4Cl)c(Cl)c3OC[C@H]2C1 [Z547, (6aR)-8-acryloyl-4-chloro-3-(2-chloro-6-fluorophenyl)-1-((S)-2,4-dimethylpiperazin-1-yl)-6,6a,7,8,9,10-hexahydro-12H-pyrazino[2,1-c]pyrido[3,4-f][1,4]oxazepin-12-one]
7 | 9310 nM | 53 nM | C=CC(=O)N1CCN2C(=O)c3c(N4CCN(C)[C@@H](C)[C@@H]4C)nc(-c4ccccc4F)c(Cl)c3OC[C@H]2C1 [Z653, (R)-8-acryloyl-4-chloro-3-(2-fluorophenyl)-1-((2S,3S)-2,3,4-trimethylpiperazin-1-yl)-6,6a,7,8,9,10-hexahydro-12H-pyrazino[2,1-c]pyrido[3,4-f][1,4]oxazepin-12 (6aH)-one]
8 | 5020 nM | 11.2 nM | C=CC(=O)N1CCN2C(=O)c3c(N4CC(N(C)CCO)CC4(C)C)nc(-c4ccccc4F)c(Cl)c3OC[C@H]2C1 (stereo partly drawn) [Z658, (6aR)-8-acryloyl-4-chloro-3-(2-fluorophenyl)-1-(4-((2-hydroxyethyl)(methyl)amino)-2,2-dimethylpyrrolidin-1-yl)-6,6a,7,8,9,10-hexahydro-12H-pyrazino[2,1-c]pyrido[3,4-f][1,4]oxazepin-12-one]
9 | 2660 nM | 13.1 nM | C=CC(=O)N1CCN2C(=O)c3c(N4CC(NC)CC4(C)C)nc(-c4ccccc4F)c(Cl)c3OC[C@H]2C1 (stereo partly drawn) [Z661, (6aR)-8-acryloyl-4-chloro-1-(2,2-dimethyl-4-(methylamino)pyrrolidin-1-yl)-3-(2-fluorophenyl)-6,6a,7,8,9,10-hexahydro-12H-pyrazino[2,1-c]pyrido[3,4-f][1,4]oxazepin-12-one]
